Laboratory results from patent US10758534B2 (Vertex Pharmaceuticals Incorporated, priority 2014, dated 2020).

What follows are molecules tested against T1, F508del (Homo sapiens, UniProt P13569, DEL508-508) (assay: Protocol 1: membrane potential optical assay (FLIPR III, voltage sensing dye), identification of potentiator compounds). Details: Table 3, compounds of Table 1.
T1 construct: expressed in transfected cells
Type: cell-based
In short: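 Read-out: change in voltage-sensing dye fluorescence (FLIPR III) as a measure of F508del conductance. Temperature-corrected (27° C, 24 hrs) NIH 3T3 cells expressing F508del are pretreated with potentiators, dye-loaded, then stimulated with forskolin under a chloride ion gradient using chloride-free gluconate bath.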

T1 sequence (P13569 with tags, fused parts or gaps DEL508-508): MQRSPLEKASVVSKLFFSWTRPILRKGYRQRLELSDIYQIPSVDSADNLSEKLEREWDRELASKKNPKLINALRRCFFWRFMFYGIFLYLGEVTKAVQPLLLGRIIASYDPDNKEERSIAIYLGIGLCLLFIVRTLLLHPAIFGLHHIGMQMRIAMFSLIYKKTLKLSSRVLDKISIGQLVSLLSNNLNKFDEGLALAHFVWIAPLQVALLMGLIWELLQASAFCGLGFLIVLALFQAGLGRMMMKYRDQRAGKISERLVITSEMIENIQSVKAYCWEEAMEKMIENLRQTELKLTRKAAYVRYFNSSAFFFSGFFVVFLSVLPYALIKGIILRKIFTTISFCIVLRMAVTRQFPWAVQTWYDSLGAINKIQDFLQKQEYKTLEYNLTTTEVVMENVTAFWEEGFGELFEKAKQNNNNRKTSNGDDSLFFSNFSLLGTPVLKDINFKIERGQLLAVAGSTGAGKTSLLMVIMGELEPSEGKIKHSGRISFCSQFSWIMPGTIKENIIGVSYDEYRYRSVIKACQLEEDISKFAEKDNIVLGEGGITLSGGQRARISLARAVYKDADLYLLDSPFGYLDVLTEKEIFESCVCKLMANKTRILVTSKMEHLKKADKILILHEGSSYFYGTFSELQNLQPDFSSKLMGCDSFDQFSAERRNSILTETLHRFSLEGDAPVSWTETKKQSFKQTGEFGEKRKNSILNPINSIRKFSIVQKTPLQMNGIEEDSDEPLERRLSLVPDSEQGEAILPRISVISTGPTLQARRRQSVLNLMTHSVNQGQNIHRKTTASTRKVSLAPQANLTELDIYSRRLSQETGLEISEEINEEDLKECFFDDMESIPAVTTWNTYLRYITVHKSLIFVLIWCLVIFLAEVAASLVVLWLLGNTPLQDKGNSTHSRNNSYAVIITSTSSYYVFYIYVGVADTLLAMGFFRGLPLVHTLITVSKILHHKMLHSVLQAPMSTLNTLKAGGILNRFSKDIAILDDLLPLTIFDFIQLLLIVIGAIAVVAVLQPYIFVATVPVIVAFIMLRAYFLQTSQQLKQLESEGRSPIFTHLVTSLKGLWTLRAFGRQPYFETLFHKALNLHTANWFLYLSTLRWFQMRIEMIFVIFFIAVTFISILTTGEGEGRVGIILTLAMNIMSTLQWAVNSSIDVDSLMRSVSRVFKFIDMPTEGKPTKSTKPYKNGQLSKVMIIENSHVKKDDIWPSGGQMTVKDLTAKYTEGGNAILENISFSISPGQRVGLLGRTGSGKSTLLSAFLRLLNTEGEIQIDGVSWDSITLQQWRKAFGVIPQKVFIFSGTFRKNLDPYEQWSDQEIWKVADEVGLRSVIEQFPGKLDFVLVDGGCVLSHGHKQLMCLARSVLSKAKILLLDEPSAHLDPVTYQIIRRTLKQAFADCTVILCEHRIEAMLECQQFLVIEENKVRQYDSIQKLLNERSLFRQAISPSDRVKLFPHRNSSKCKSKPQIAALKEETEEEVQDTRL

Row | EC30 | SMILES
1 | +++ (“+++” means <3 uM) | Cc1cc(OC(C)C)ncc1-c1ccc(C(=O)NS(=O)(=O)c2cccc(N)n2)c(N2[C@H](C)CC[C@@H]2C)n1 [Compound 1514, N-[(6-amino-2-pyridyl)sulfonyl]-2-[(2R,5S)-2,5-dimethylpyrrolidin-1-yl]-6-(6-isopropoxy-4-methyl-3-pyridyl)pyridine-3-carboxamide]
2 | +++ (“+++” means <3 uM) | CC(CO)COc1cc(F)cc(-c2ccc(C(=O)NS(=O)(=O)c3ccccc3)c(N3C[C@@H](C)CC3(C)C)n2)c1 (stereo partly drawn) [Compound 1515, N-(benzenesulfonyl)-6-[3-fluoro-5-(3-hydroxy-2-methyl-propoxy)phenyl]-2-[(4S)-2,2,4-trimethylpyrrolidin-1-yl]pyridine-3-carboxamide]
3 | +++ (“+++” means <3 uM) | Cc1cc(C)c(Oc2nc(N3CCCC3C)c(C)cc2C(=O)NS(=O)(=O)c2cccc(N)n2)c(C)c1 (centres unmarked) [Compound 1516, N-[(6-amino-2-pyridyl)sulfonyl]-5-methyl-6-(2-methylpyrrolidin-1-yl)-2-(2,4,6-trimethylphenoxy)pyridine-3-carboxamide]
4 | +++ (“+++” means <3 uM) | Cc1cc(C)c(Oc2nc(C3=CCSCC3)ccc2C(=O)NS(=O)(=O)c2cccc(N)n2)c(C)c1 [Compound 1517, N-[(6-amino-2-pyridyl)sulfonyl]-6-(3,6-dihydro-2H-thiopyran-4-yl)-2-(2,4,6-trimethylphenoxy)pyridine-3-carboxamide]
5 | +++ (“+++” means <3 uM) | Cc1cc(C)c(Oc2nc(C3=CC4CCC3C4)ccc2C(=O)NS(=O)(=O)c2cccc(N)n2)c(C)c1 (centres unmarked) [Compound 1518, N-[(6-amino-2-pyridyl)sulfonyl]-6-(3-bicyclo[2.2.1]hept-2-enyl)-2-(2,4,6-trimethylphenoxy)pyridine-3-carboxamide]
6 | +++ (“+++” means <3 uM) | Cc1cc(C)c(Oc2nc(C3CCC(C(F)(F)F)CC3)ccc2C(=O)NS(=O)(=O)c2cccc(N)n2)c(C)c1 (centres unmarked) [Compound 1519, N-[(6-amino-2-pyridyl)sulfonyl]-6-[4-(trifluoromethyl)cyclohexyl]-2-(2,4,6-trimethylphenoxy)pyridine-3-carboxamide]
7 | +++ (“+++” means <3 uM) | CC1CN(c2nc(C(C)(C)C)c(C3=CCN(C(=O)OC(C)(C)C)CC3)cc2C(=O)NS(=O)(=O)c2cccc(N)n2)C(C)(C)C1 (centres unmarked) [Compound 1522, tert-butyl 4-[5-[(6-amino-2-pyridyl)sulfonylcarbamoyl]-2-tert-butyl-6-(2,2,4-trimethylpyrrolidin-1-yl)-3-pyridyl]-3,6-dihydro-2H-pyridine-1-carboxylate]
8 | +++ (“+++” means <3 uM) | C[C@@H]1CN(c2nc(C3=COCCC3)ccc2C(=O)NS(=O)(=O)c2cccc(N)n2)C(C)(C)C1 [Compound 1524, N-[(6-amino-2-pyridyl)sulfonyl]-6-(3,4-dihydro-2H-pyran-5-yl)-2-[(4S)-2,2,4-trimethylpyrrolidin-1-yl]pyridine-3-carboxamide]
9 | +++ (“+++” means <3 uM) | CC(C)C[C@@H](C)Nc1ccc(-c2ccc(C(=O)NS(=O)(=O)c3cccc(N)n3)c(N3[C@H](C)CC[C@@H]3C)n2)cn1 [Compound 1527, N-[(6-amino-2-pyridyl)sulfonyl]-6-[6-[[(1R)-1,3-dimethylbutyl]amino]-3-pyridyl]-2-[(2S,5R)-2,5-dimethylpyrrolidin-1-yl]pyridine-3-carboxamide]
10 | ++ (“++” means between 3 uM and 10 uM) | Cc1cc(C)c(Oc2nc(C3=CC(=O)CC(C)(C)C3)ccc2C(=O)NS(=O)(=O)c2cccc(N)n2)c(C)c1 [Compound 1528, N-[(6-amino-2-pyridyl)sulfonyl]-6-(5,5-dimethyl-3-oxo-cyclohexen-1-yl)-2-(2,4,6-trimethylphenoxy)pyridine-3-carboxamide]

The remaining lines, values behind:

Row | SMILES | EC30
11 | CC(C)=C(C)c1ccc(C(=O)NS(=O)(=O)c2cccc(N)n2)c(N2C[C@@H](C)CC2(C)C)n1 [Compound 1510, N-[(6-amino-2-pyridyl)sulfonyl]-6-(1,2-dimethylprop-1-enyl)-2-[(4S)-2,2,4-trimethylpyrrolidin-1-yl]pyridine-3-carboxamide] | +++ (“+++” means <3 uM)
12 | CC1CN(c2nc(C(C)(C)C)ccc2C(=O)NS(=O)(=O)c2cccc(N)n2)C(C)(C)C1 (centres unmarked) [Compound 1511] | +++ (“+++” means <3 uM)
13 | CCOc1cc(C)cc(-c2ccc(C(=O)NS(=O)(=O)c3cccc(N)n3)c(N3C[C@@H](C)CC3(C)C)n2)n1 [Compound 1512, N-[(6-amino-2-pyridyl)sulfonyl]-6-(6-ethoxy-4-methyl-2-pyridyl)-2-[(4S)-2,2,4-trimethylpyrrolidin-1-yl]pyridine-3-carboxamide] | +++ (“+++” means <3 uM)
14 | Cc1cc(C)c(Oc2nc(C3=CCCCCC3)ccc2C(=O)NS(=O)(=O)c2cccc(N)n2)c(C)c1 [Compound 1513, N-[(6-amino-2-pyridyl)sulfonyl]-6-(cyclohepten-1-yl)-2-(2,4,6-trimethylphenoxy)pyridine-3-carboxamide] | +++ (“+++” means <3 uM)
15 | CC(C)COc1cc(F)cc(-c2ccc(C(=O)NS(=O)(=O)N3CCCC(C)(NC(=O)OC(C)(C)C)C3)c(N3CC(C)CC3(C)C)n2)c1 (centres unmarked) [Compound 1520, tert-butyl N—[1-[[6-(3-fluoro-5-isobutoxy-phenyl)-2-(2,2,4-trimethylpyrrolidin-1-yl)pyridine-3-carbonyl]sulfamoyl]-3-methyl-3-piperidyl]carbamate] | +++ (“+++” means <3 uM)
16 | CC(C)COc1cc(F)cc(-c2ccc(C(=O)NS(=O)(=O)N3CC4CC4(N)C3)c(N3C[C@@H](C)CC3(C)C)n2)c1 (stereo partly drawn) [Compound 1521, N-[(5-amino-3-azabicyclo[3.1.0]hexan-3-yl)sulfonyl]-6-(3-fluoro-5-isobutoxy-phenyl)-2-[(4S)-2,2,4-trimethylpyrrolidin-1-yl]pyridine-3-carboxamide] | +++ (“+++” means <3 uM)
17 | CC(C)COc1cncc(-c2ccc(C(=O)NS(=O)(=O)c3cccc(N)n3)c(N3C[C@@H](C)CC3(C)C)n2)n1 [Compound 1523, N-[(6-amino-2-pyridyl)sulfonyl]-6-(6-isobutoxypyrazin-2-yl)-2-[(4S)-2,2,4-trimethylpyrrolidin-1-yl]pyridine-3-carboxamide] | +++ (“+++” means <3 uM)
18 | CC(C)COc1cc(F)cc(-c2ccc(C(=O)NS(=O)(=O)C3CC3)c(N3C[C@@H](C)CC3(C)C)n2)c1 [Compound 1525, N-cyclopropylsulfonyl-6-(3-fluoro-5-isobutoxy-phenyl)-2-[(4S)-2,2,4-trimethylpyrrolidin-1-yl]pyridine-3-carboxamide] | +++ (“+++” means <3 uM)
19 | CC(C)COc1cc(F)cc(-c2cnc(C(=O)NS(=O)(=O)c3cccc(N)n3)c(N3C[C@@H](C)CC3(C)C)n2)c1 [Compound 1526, NV [(6-amino-2-pyridyl)sulfonyl]-5-(3-fluoro-5-isobutoxy-phenyl)-3-[(4S)-2,2,4-trimethylpyrrolidin-1-yl]pyrazine-2-carboxamide] | +++ (“+++” means <3 uM)
20 | CC(C)COc1cc(F)cc(-c2ccc(C(=O)NS(=O)(=O)c3cccc(N)n3)c(N3CC4CC(C4)C3)n2)c1 [Compound 1529, N-[(6-amino-2-pyridyl)sulfonyl]-2-(3-azabicyclo[3.1.1]heptan-3-yl)-6-(3-fluoro-5-isobutoxy-phenyl)pyridine-3-carboxamide] | +++ (“+++” means <3 uM)
